# Test results from patent publication US20170226507A1, “COORDINATE CONTROL OF PATHOGENIC SIGNALING BY THE MIR-130/301 FAMILY IN PULMONARY HYPERTENSION AND FIBROPROLIFERATIVE DISEASES” (The Brigham and Women's Hospital, Inc., priority 2014, published 2017).
# Columns and labels:
# Assay type in all cases: cell-based, human
# PASMCs [1] = assay: Gene/miRNA expression in transfected or drug-treated PASMCs (immunoblotting, RT-qPCR)
# Excerpt: (§1) Pre-miRNA oligonucleotides (pre-miR-130a, pre-miR-204, pre-miR-424, and pre-miR-503 and negative control pre-miR-NC1 and premiR-NC2, Life Technologies), anti-miRNAs oligonucleotides (anti-miR-130a and anti-miR-NC, ThermoScientific), tiny LNA oligonucleotides (tiny-130: 5′-[…]-3′ (SEQ ID NO: 3), and tiny-NC 5′-[…]-3′ (SEQ ID NO: 51), Exiqon), siRNAs (PPARγ and scrambled control, Santa Cruz Biotechnology; HIF-1α, HIF-2α, and scrambled control, Life Technologies) were commercially purchased. PAECs and PASMCs were plated and transfected 24 h later at 70-80% confluence using pre-miRNA (5 nM), anti-miRNA (20 nM), tiny-LNA (20 nM) or siRNA (25 nM) with Lipofectamine 2000 reagent (Life Technologies), according to the manufacturers' instructions.
# (§2) Primary human pulmonary arterial endothelial cells (PAECs) were purchased and propagated in EGM-2 cell culture media (Lonza). Experiments were performed at passages 3 to 6. Primary human pulmonary arterial smooth muscle cells (PASMCs) were purchased and propagated in SmGM-2 cell culture media (Lonza). Experiments were performed at passages 3 to 9. HEK293T cells (American Type Culture Collection) were used and cultivated in DMEM containing 10% fetal bovine serum (FBS). Cells were cultured at 37° C. in a humidified 5% CO2 atmosphere. A modular hypoxia chamber at 0.2% oxygen, 94.8% nitrogen and 5% carbon dioxide was used during 24 h for hypoxic conditions. Cultured cells were exposed to recombinant human IL-1α at 10 ng·mL-1 (Peprotech). Recombinant human IL-6 (Peprotech) was used at 100 ng·mL-1. Rosiglitazone (Sigma) was used at 10 μM.
# (§3) Mature miRNA expression was evaluated using TaqMan MicroRNA Assays (Life Technologies/Applied Biosystems) and the Applied Biosystems 7900HT Fast Real Time PCR device (Life Technologies/Applied Biosystems). Expression levels were normalized to RNU48 or snoR55 for human or mouse experiments, respectively, and calculated using the comparative Ct method (2^−ΔΔCt) as we previously described (1).
# (§4) Messenger RNAs were reverse transcribed using the Multiscript RT kit (Life Technologies) to generate cDNA. cDNA was amplified via fluorescently labeled Taqman primer sets using an Applied Biosystems 7900HT Fast Real Time PCR device, as we previously described (1). Fold-change of RNA species was calculated using the formula (2^−ΔΔCt), normalized to actin expression.
# (§5) Cells were lysed in RIPA buffer (Santa Cruz Biotechnology) and the protein concentration determined using a Bradford assay (Biorad). Protein lysate ([…]) were resolved by SDS-PAGE and transferred onto a PVDF membrane (Biorad). Membranes were blocked in 5% non-fat milk in TN buffer (50 mM Tris-HCl pH 7.4, 150 mM NaCl) and incubated in the presence of the primary and then secondary antibodies. After washing in TN buffer containing 0.1% Tween, immunoreactive bands were visualized with the ECL system (Amersham Biosciences). […] Primary antibodies for STAT3 (#9139) and P-STAT3 (Tyr-705; #9145) were purchased from Cell Signaling. Primary antibodies against actin (ab 3280), α-smooth-muscle-actin (ab 32575), CD31 (ab28364), and PCNA (ab 29) were obtained from Abcam. Appropriate secondary antibodies (anti-rabbit and anti-mouse) coupled to HRP were used (Santa Cruz Biotechnology).
# PAECs = assay: Gene/miRNA expression in transfected or drug-treated PAECs (immunoblotting, RT-qPCR)
# Excerpt: as §1, §2, §3, §4, §5
# Pre-miRNA oligonucleotides (pre-miR-130a and negative control pre-miR-NC1 and premiR-NC2), anti-miRNAs oligonucleotides (anti-miR-130a and anti-miR-NC), and custom designed tiny LNA oligonucleotides (tiny-130: 5′-[…]-3′ (SEQ ID NO: 3), and tiny-NC 5′-[…]-3′ (SEQ ID NO: 51)) were purchased from Life Technologies/Ambion, ThermoScientific/Dharmacon, and Exiqon, respectively. siRNAs for PPARγ and scrambled control were purchased from Santa Cruz Biotechnology. PAEC and PASMC were plated and transfected 24 h later at 70-80% confluence using pre-miRNA (5 nM), anti-miRNA (20 nM), tiny-LNA (20 nM) or siRNA (25 nM) and Lipofectamine 2000 reagent (Life Technologies), according to the manufacturers' instructions. […]
# PASMCs [2] = assay: Caspase 3/7 assay, PASMCs
# Experimental: Caspase 3,7 activity was quantified using the Caspase-Glo 3/7 Assay (Promega), according to manufacturer's instructions. Briefly, cells were plated in triplicate in 96-well plates and transfected with the appropriate oligonucleotide. Forty-eight hours after transfection, cells were cultured in the presence or absence of serum for twenty-four hours. Cells were then incubated for 1 h with the caspase substrates, and luminescence was quantified.
# [3] = normoxia or hypoxia, compared with anti-miR-130a
# [4] = tiny-LNA-130: stiffness-mediated up-regulation
# [5] = transcripts 48 h after transfection
substance,measurement,setting,value
"tiny-LNA-130: fully LNA-modified tiny LNA oligonucleotide 5′-ATTGCACT-3′ (SEQ ID NO: 3) complementary to the seed region of the miR-130/301 family (all LNA, backbone and methylation of C not given here)","downstream gene/subordinate miRNA alterations (PPARγ, STAT3, P-STAT3, miR-204)",PASMCs [1]; [3],reversed such downstream gene/subordinate miRNA alterations to a greater extent than inhibition of miR-130a alone
same,"collagen, CTGF, and LOX",PASMCs [1]; [4],reversed
same,CCND1 expression,PASMCs [1]; transcripts,decreased
same,"CDKN1A, CDKN1B and CDKN2A expression",PASMCs [1]; transcripts,increased
same,NFATC2 and PIM1 expression,PASMCs [1]; [5],decreased
same,PPARγ expression,"PAECs; immunoblotting, densitometry",increased
same,"downstream gene/subordinate miRNA alterations (PPARγ, apelin, miR-424, miR-503, FGF2)",PAECs; [3],reversed these downstream gene/subordinate miRNA alterations to a greater extent than inhibition of miR-130a alone
same,"collagen, CTGF, and LOX",PAECs; [4],reversed
same,CCND1 expression,PAECs; [5],decreased
same,"CDKN1A, CDKN1B and CDKN2A expression",PAECs; [5],increased
same,"gene expression changes in VEGFA, EDN1 and NOS3","PAECs; vs tiny-LNA-NC, transcript in hypoxia, protein in normoxia",reversed these gene expression changes
same,caspase 3/7 activity,PASMCs [2]; 24 h serum deprivation,no significant modulation
same,caspase 3/7 activity,PASMCs [2]; serum-replete conditions,No significant modulation
